Test results reported in US10130633B2, “Compounds” (BAYER PHARMA AKTIENGESELLSCHAFT, priority 2013, dated 2018).
Where two headings read alike, the source gives them in different places.

Assays:
[1] = test system: HEK293 FOP control reporter cell line; assay: HEK293 FOP control reporter assay; format: cell-based, human; conditions: read-out: HEK FOP IC50
Method: Measurement of luciferase expression was done as described for the constitutive active Wnt assay.
(§1) In a parallel approach, HEK293 cells were cotransfected with the FOP control vector and pcDNA3. The FOP vector is identical to the TOP construct, but it contains instead of functional TCF elements a randomized, non-functional sequence. For this transfection a stable transfected cell line was generated as well, based on selection with Geneticin (1 mg/ml).

[2] = test system: HCT116 FOP control reporter cell line; assay: HCT116 FOPFlash control reporter assay (FOP control vector, non-functional TCF elements); format: cell-based; conditions: HCT116 FOP control reporter cells, 36 hours incubation, luciferase expression
Description: as §1, with “HCT116” for “HEK293”, “well.” for “well, based on selection with Geneticin (1 mg/ml).”

Structure (SMILES) | IC50 ([1]; HEK293 FOP control cells, EC50 concentration of recombinant Wnt-3a, 16 hours) [µM] | IC50 [2] [µM] | IC50 ([1]; Homo sapiens, HEK293, 16 h) [µM]
C[C@@H](C(=O)Nc1cc(C(=O)Nc2ccc(-c3ccccc3F)nc2)ccc1OC(F)(F)F)N1CCN(C)CC1 (single isomer, unassigned) [Example 65, N-[6-(2-fluorophenyl)pyridin-3-yl]-3-{[(2S)-2-(4-methylpiperazin-1-yl)propanoyl]amino}-4-(trifluoromethoxy)benzamide or N-[6-(2-fluorophenyl)pyridin-3-yl]-3-{[(2R)-2-(4-methylpiperazin-1-yl)propanoyl]amino}-4-(trifluoromethoxy)benzamide] | ≥ 50 | ≥ 50 | –
CC(C(=O)Nc1cc(C(=O)Nc2nnc(-c3ccccc3)s2)ccc1OC(F)(F)F)N1CCOCC1 (stereo not drawn) [Example 57, 3-{[2-(morpholin-4-yl)propanoyl]amino}-N-(5-phenyl-1,3,4-thiadiazol-2-yl)-4-(trifluoromethoxy)benzamide] | – | ≥ 50 | ≥ 50
O=C(Nc1ccc(-c2cc(F)cc(F)c2)nc1)c1ccc(OC(F)(F)F)c(NC(=O)C2(N3CCOCC3)CC2)c1 [Example 71, N-[6-(3,5-difluorophenyl)pyridin-3-yl]-3-({[1-(morpholin-4-yl)cyclopropyl]carbonyl}amino)-4-(trifluoromethoxy)benzamide] | – | – | ≥ 50
NC(=O)c1ccc(C(=O)Nc2ccc(-c3ccccc3F)nc2)cc1NC(=O)C1(N2CCOCC2)CC1 [Example 75, N^4-[6-(2-fluorophenyl)pyridin-3-yl]-2-({[1-(morpholin-4-yl)cyclopropyl]carbonyl}amino)terephthalamide] | – | – | ≥ 50
Cc1ccc(C(=O)Nc2ccc(-c3ccccc3F)nc2)cc1NC(=O)C1(N2CCOCC2)CC1 [Example 76, N-[6-(2-fluorophenyl)pyridin-3-yl]-4-methyl-3-({[1-(morpholin-4-yl)cyclopropyl]carbonyl}amino)benzamide] | – | – | ≥ 50
O=C(Nc1ccc(-c2ccccc2)cn1)c1ccc(OC(F)(F)F)c(NC(=O)C2(N3CCOCC3)CC2)c1 [Example 95, 3-({[1-(morpholin-4-yl)cyclopropyl]carbonyl}amino)-N-(5-phenylpyridin-2-yl)-4-(trifluoromethoxy)benzamide] | – | – | ≥ 50
CC(C(=O)Nc1cc(C(=O)Nc2ccc(-c3ccc(N)cc3)nc2)ccc1OC(F)(F)F)N1CCOCC1 (stereo not drawn) [Example 111, N-[6-(4-aminophenyl)pyridin-3-yl]-3-{[2-(morpholin-4-yl)propanoyl]amino}-4-(trifluoromethoxy)benzamide] | – | – | ≥ 50
CC(=O)Nc1ccc(-c2ccc(NC(=O)c3ccc(OC(F)(F)F)c(NC(=O)C(C)N4CCOCC4)c3)cn2)cc1 (stereo not drawn) [Example 113, N-[6-(4-acetamidophenyl)pyridin-3-yl]-3-{[2-(morpholin-4-yl)propanoyl]amino}-4-(trifluoromethoxy)benzamide] | – | – | ≥ 50
O=C(Nc1ccc(-c2ccccc2F)nc1)c1ccc(OC2CC2)c(NC(=O)C2(N3CCN(C4CC4)CC3)CC2)c1 [Example 136, 4-(cyclopropyloxy)-3-({[1-(4-cyclopropylpiperazin-1-yl)cyclopropyl]carbonyl}amino)-N-[6-(2-fluorophenyl)pyridin-3-yl]benzamide] | – | – | ≥ 50
CN1CCN(CC(=O)Nc2cc(C(=O)Nc3nnc(-c4cccc(Cl)c4)s3)ccc2OC(F)(F)F)CC1 [Example 151, N-[5-(3-chlorophenyl)-1,3,4-thiadiazol-2-yl]-3-{[(4-methylpiperazin-1-yl)acetyl]amino}-4-(trifluoromethoxy)benzamide] | – | – | ≥ 50
